Measured values taken from PubChem BioAssay AID624327 (Sanford-Burnham Center for Chemical Genomics, 2012).

The compounds below were run against Fatty acid synthase (Homo sapiens) (UniProt P49327) (assay: FAS thioesterase domain inhibitors, dose response, biochemical, endpoint fluorescence intensity, uHTS hits (AID 624327)). Settings: recombinant FAS-TE, OMFH fluorogenic substrate.
Sequence of Fatty acid synthase (Homo sapiens) (P49327 whole entry, looked up, the tested form may be a part): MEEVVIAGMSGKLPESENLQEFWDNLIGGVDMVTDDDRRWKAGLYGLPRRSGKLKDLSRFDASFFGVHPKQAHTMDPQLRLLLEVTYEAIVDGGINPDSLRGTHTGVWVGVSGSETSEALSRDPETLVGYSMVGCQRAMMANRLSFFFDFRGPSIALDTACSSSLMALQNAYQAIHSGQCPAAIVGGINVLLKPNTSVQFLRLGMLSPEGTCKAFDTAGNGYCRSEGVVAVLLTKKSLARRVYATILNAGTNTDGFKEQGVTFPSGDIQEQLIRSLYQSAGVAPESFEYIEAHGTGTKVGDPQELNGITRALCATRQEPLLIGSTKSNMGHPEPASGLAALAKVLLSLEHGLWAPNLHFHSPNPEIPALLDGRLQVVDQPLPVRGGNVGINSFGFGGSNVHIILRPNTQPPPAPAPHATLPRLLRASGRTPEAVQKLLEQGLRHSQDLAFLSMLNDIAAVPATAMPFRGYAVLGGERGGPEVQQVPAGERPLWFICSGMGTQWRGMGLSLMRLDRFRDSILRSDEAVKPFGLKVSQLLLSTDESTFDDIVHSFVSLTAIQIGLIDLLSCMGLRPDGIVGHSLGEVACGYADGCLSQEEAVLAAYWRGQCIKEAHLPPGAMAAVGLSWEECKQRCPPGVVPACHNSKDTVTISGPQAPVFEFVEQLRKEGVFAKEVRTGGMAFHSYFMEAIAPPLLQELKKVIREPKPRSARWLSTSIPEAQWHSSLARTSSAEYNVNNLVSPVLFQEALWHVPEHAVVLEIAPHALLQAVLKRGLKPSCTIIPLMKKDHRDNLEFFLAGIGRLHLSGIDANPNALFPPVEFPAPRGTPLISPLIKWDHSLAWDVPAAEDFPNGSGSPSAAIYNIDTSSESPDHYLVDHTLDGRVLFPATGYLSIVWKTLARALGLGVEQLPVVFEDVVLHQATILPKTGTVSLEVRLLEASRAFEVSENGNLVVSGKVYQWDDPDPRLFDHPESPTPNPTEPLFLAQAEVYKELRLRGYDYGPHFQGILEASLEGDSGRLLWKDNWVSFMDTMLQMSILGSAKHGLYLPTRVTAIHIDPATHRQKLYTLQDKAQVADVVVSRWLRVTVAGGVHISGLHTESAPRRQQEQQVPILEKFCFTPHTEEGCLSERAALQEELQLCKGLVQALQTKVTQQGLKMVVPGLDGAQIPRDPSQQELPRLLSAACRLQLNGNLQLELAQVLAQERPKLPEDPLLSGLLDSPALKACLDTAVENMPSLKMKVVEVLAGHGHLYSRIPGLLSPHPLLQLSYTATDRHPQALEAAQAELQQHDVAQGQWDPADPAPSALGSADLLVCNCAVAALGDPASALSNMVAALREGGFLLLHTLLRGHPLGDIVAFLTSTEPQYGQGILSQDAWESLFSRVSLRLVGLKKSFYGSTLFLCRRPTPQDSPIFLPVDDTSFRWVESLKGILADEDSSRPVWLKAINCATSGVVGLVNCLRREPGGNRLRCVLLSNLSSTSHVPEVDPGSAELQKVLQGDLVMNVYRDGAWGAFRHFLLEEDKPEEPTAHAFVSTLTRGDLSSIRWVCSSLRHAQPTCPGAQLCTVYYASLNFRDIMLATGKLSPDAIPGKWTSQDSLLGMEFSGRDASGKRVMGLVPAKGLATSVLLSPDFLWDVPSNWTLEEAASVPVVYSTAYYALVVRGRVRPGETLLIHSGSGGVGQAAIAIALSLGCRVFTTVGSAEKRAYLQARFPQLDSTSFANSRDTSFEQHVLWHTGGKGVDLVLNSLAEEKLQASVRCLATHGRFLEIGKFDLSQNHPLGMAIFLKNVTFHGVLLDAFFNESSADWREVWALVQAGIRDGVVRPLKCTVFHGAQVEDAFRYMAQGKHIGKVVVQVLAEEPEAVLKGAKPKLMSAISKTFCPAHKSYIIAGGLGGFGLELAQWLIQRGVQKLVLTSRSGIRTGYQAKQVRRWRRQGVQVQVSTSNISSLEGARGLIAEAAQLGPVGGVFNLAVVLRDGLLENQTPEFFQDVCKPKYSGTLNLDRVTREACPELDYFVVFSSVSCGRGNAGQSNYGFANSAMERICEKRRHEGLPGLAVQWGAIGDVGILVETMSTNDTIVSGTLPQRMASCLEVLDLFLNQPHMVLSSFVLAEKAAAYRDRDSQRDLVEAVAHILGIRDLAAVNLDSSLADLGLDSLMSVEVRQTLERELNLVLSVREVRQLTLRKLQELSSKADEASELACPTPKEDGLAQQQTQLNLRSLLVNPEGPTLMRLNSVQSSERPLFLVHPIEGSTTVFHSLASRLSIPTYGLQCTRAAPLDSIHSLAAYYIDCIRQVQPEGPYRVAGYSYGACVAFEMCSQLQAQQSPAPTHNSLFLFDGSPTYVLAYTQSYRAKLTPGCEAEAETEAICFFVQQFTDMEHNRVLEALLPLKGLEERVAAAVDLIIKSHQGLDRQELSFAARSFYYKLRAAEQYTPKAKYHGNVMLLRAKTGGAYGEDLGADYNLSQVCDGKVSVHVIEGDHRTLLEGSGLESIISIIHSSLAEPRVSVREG

Structure (SMILES)	IC50 [µM]
COCc1cc(C)nc(SCC[N+](C)(C)CC(=O)Nc2ccccc2)c1C#N	12.3
N/C(=N\OC(=O)CCCc1ccccc1)c1cccc([N+](=O)[O-])c1	12
CN(C(=O)Nc1ccc(Cl)cc1Cl)[C@H]1c2cc(Br)ccc2OC[C@H]1CO	11
Cc1ccc(NC(=O)NNC(=O)Cn2nc(-c3ccccc3)c(-c3ccccc3)c(C#N)c2=O)cc1	4.69
Cc1cc(C(=O)N/N=C/c2cc([N+](=O)[O-])cc(C)c2O)n[nH]1	11.7
O=C(Nc1nc(-c2ccc(S(=O)(=O)N3CCCC3)cc2)cs1)c1ccco1	4.68
O=C(Nc1nnc(SCc2ccccc2Cl)s1)c1cccc([N+](=O)[O-])c1	11.4
O=C(C[C@H]1C[C@H](C(=O)N2CCOCC2)[C@@]2(CCC3CCCC3)c3[nH]c4cc(-c5ccco5)ccc4c3CCN2C1=O)NCCc1ccccn1	6.97
O=S(=O)(c1ccc(-c2csc(Nc3ccc(F)cc3)n2)cc1)N1CCCC1	14.8
COC(=O)c1cc(C(=O)NC(C)C2CC3CCC2C3)cc([N+](=O)[O-])c1 (stereo unspecified)	11.6
CC1(C(=O)NS(=O)(=O)c2ccc(C#N)cc2)CCN1C(=O)c1ccc(C2CCCCC2)cc1 (stereo unspecified)	5.24
O=C(COc1ccc2c(-c3ccccc3)cc(=O)oc2c1)N[C@@H](Cc1c[nH]c2ccc(O)cc12)C(=O)O	6.86
CCOC(=O)[C@]12Cc3ccccc3[C@H]1N(C1CCCCC1)C(=O)c1cc(OC)ccc12	8.27
CCCc1cc(C(=O)Nc2cccc([N+](=O)[O-])c2)cs1	8.69
COc1ccc2cc3cc(C(=O)N4CC(C)CC(C)C4)oc3nc2c1 (stereo unspecified)	3.85
CCN(CC(=O)NCc1cccs1)S(=O)(=O)c1ccc([N+](=O)[O-])cc1	17.7
COc1ccccc1C(=O)Nc1nc(-c2ccc(S(=O)(=O)N3CCOCC3)cc2)cs1	11.8
CCc1nc2c(OCc3ccc(C(F)(F)F)cc3)cccn2c1N(C=O)Cc1ccc(OC)cc1	9.2
O=C(c1ccc(Cl)c([N+](=O)[O-])c1)N1CCN(c2ccccc2)CC1	12
CCCC(C)c1nnc(NC(=O)c2cc(C(=O)OC)cc([N+](=O)[O-])c2)s1 (stereo unspecified)	7.12
COc1ccc(/C=C(\NC(=O)c2ccc([N+](=O)[O-])cc2)C(=O)NCCN2CCOCC2)cc1	5.25
Oc1ccc(Cl)cc1Sc1cc(Cl)ccc1O	3.55
O=C(CC(c1ccccc1)c1ccccc1)NCC(O)c1ccc([N+](=O)[O-])cc1 (stereo unspecified)	13.5
O=C(CN1C(=O)c2cccc([N+](=O)[O-])c2C1=O)N1CCc2ccccc2C1	9.44
CN(C)S(=O)(=O)c1ccc(-c2csc(-c3cccnc3)n2)cc1	5.21
COc1ccc(NC(=O)CC2C(=O)N(C)C(=S)N2Cc2cccs2)cc1 (stereo unspecified)	15.8
CCC(C)(C)C1CCC(=NNS(=O)(=O)c2ccc(C)c([N+](=O)[O-])c2)CC1 (stereo unspecified)	17.9

Compounds with a lower IC50, results first:

IC50 [µM]	Structure (SMILES)
2.68	O=S(=O)(c1ccc(-c2csc(-c3cccnc3)n2)cc1)N1CCCCC1
1.51	O=S(=O)(c1ccc(-c2csc(-c3cccnc3)n2)cc1)N1CCCC1
2.14	O=S(=O)(c1ccc(-c2csc(-c3cccnc3)n2)cc1)N1CCOCC1
< 0.16	CC(C)(C)OC(=O)NCCCC[C@H](NC(=O)c1nc[nH]c1C(=O)NCC(=O)OCc1ccccc1)C(=O)OC(C)(C)C
3.26	COc1ccc(CNC(=O)/C=C/c2cc([N+](=O)[O-])ccc2OC(F)F)cc1OC
0.417	O=C(COc1ccccc1)Nc1nc(-c2ccc(S(=O)(=O)N3CCOCC3)cc2)cs1
1.31	O=C(Nc1nc(-c2ccc(S(=O)(=O)N3CCCC3)cc2)cs1)C1COc2ccccc2O1 (stereo unspecified)
0.199	CCCCC(=O)Nc1nc(-c2ccc(S(=O)(=O)N3CCOCC3)cc2)cs1
0.861	CNS(=O)(=O)c1ccc2c(c1)C(=O)c1cc(S(=O)(=O)NC)ccc1CC2
3.39	CC(C)(C)c1nc2scc(-c3cccs3)c2c(=O)o1
1.56	CC(C)(C)OC(=O)NCCCC[C@H](NC(=O)c1nc[nH]c1C(=O)NC1CCN(C(=O)OC(C)(C)C)CC1)C(=O)OC(C)(C)C
2.72	O=C(OCc1ccc([N+](=O)[O-])cc1)c1cc([N+](=O)[O-])ccc1N1CCOCC1
1.83	CCn1c(=O)c([N+](=O)[O-])c(N2CCN(Cc3ccc4c(c3)OCO4)CC2)c2ccccc21
1.52	Cc1cccc(N2CCN(C(=O)CNC(=O)c3cccc([N+](=O)[O-])c3)CC2)c1C
